The values that follow come from PMC11672294, “The Antipsychotic Drug Aripiprazole Suppresses Colorectal Cancer by Targeting LAMP2a to Induce RNH1/miR‐99a/mTOR‐Mediated Autophagy and Apoptosis” (Advanced Science, 2024).

Where a name gives a salt, the structure may show the parent alone.

The first data set has as its system HT29. The settings on record: 72 h, relative to DMSO, 10 µM, Relative cell viability (%). In short, it runs like this:
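Cells were exposed to drug for 72 h, then to WST-1 for 2 h at 37 °C, and absorbance was read at 450 nm as viability against DMSO treatment. In the screen, each compound was applied at 10 µM.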
As to `Cc1c(-c2ccc(O)cc2)n(Cc2ccc(OCCN3CCCCCC3)cc2)c2ccc(O)cc12` [Bazedoxifene Acetate], the “Relative cell viability (%)” value was determined as 88.41%.

In the case of `COc1ccc2nc([S@@+]([O-])Cc3ncc(C)c(OC)c3C)[nH]c2c1` [Esomeprazole Sodium], the “Relative cell viability (%)” value came out at 105.5%.

As for `CCOC(=O)C1=C(COCCN)NC(C)=C(C(=O)OC)C1c1ccccc1Cl` (stereo not drawn) [Amlodipine], the “Relative cell viability (%)” value was 88.54%.

On to `CC/C(=C(\c1ccccc1)c1ccc(OCCN(C)C)cc1)c1ccccc1` [Tamoxifen], for which the “Relative cell viability (%)” value is on record as 18.22%.

Turning to `COc1ccccc1Oc1c(NS(=O)(=O)c2ccc(C(C)(C)C)cc2)nc(-c2ncccn2)nc1OCCO` [Bosentan], the “Relative cell viability (%)” value was 63.94%.

As for `COc1cc(Nc2ncc(F)c(Nc3ccc4c(n3)N(COP(=O)(O)O)C(=O)C(C)(C)O4)n2)cc(OC)c1OC` [Fostamatinib (R788)], the “Relative cell viability (%)” value was found to be 28.64%.

Still in this data set, the particulars now being: 72 h, relative to DMSO; 10 µM.
For the molecule `CN1CCN(c2nc(C3=C(c4c[nH]c5ccccc45)C(=O)NC3=O)c3ccccc3n2)CC1` [Sotrastaurin], the “Relative cell viability (%)” value came to 49.03%.

Take `COCCCC/C(=N\OCCN)c1ccc(C(F)(F)F)cc1` [Fluvoxamine maleate]: the “Relative cell viability (%)” value is listed as 72.74%.

In the case of `Cc1c(OCC(F)(F)F)ccnc1C[S+]([O-])c1nc2ccccc2[nH]1` (stereo not drawn) [Lansoprazole], the “Relative cell viability (%)” value stood at 63.4%.

Regarding `C=CC(=O)Nc1cc(Nc2nccc(-c3cn(C)c4ccccc34)n2)c(OC)cc1N(C)CCN(C)C` [AZD9291], the “Relative cell viability (%)” value was determined as 0.8547%.

Turning to `CCCN(CCc1cccs1)[C@H]1CCc2c(O)cccc2C1` [Rotigotine], the “Relative cell viability (%)” value amounted to 62.12%.

Take `Nc1nc2c(ncn2COCCO)c(=O)[nH]1` [Aciclovir]: the “Relative cell viability (%)” value turned out to be 89.41%.

Regarding `O=C(O)c1cn(-c2ccc(F)cc2)c2cc(N3CCNCC3)c(F)cc2c1=O` [Sarafloxacin HCl], the “Relative cell viability (%)” value is reported as 85.35%.

As for `CC12CC3CC(C)(C1)CC(N)(C3)C2` [Memantine HCl], the “Relative cell viability (%)” value was 108.7%.

On to `C[C@@H](NCCCc1cccc(C(F)(F)F)c1)c1cccc2ccccc12` [Cinacalcet HCl], for which the “Relative cell viability (%)” value is listed as 2.648%.

As to `CC(C)OC(=O)[C@H](C)N[P@](=O)(CO[C@H](C)Cn1cnc2c(N)ncnc21)Oc1ccccc1` [Tenofovir Alafenamide (GS-7340)], the “Relative cell viability (%)” value is reported as 125.2%.

As for `Cc1ccnc2c1NC(=O)c1cccnc1N2C1CC1` [Nevirapine], the “Relative cell viability (%)” value was 94.49%.

As for `Cc1c(C(=O)Nc2ccc(N3C[C@@H](C)O[C@@H](C)C3)nc2)cccc1-c1ccc(OC(F)(F)F)cc1` [LDE225 (NVP-LDE225,Erismodegib)], the “Relative cell viability (%)” value came out at 111.4%.

Consider `CN1CCc2nc(C(=O)N[C@@H]3C[C@@H](C(=O)N(C)C)CC[C@@H]3NC(=O)C(=O)Nc3ccc(Cl)cn3)sc2C1` [Edoxaban], for which the “Relative cell viability (%)” value is reported as 95.73%.

Turning to `CC(C)(Oc1ccc(Cl)cc1)C(=O)O` [Clofibric Acid], the “Relative cell viability (%)” value was 90.303%.

Take `CS(=O)(=O)c1ccc(C2=C(c3ccccc3)C(=O)OC2)cc1` [Rofecoxib]: the “Relative cell viability (%)” value amounted to 116%.

On to `CN(C(=O)c1ccc(F)cc1C(F)(F)F)C1CCN(c2nnc(-c3ccnn3C)c3ccccc23)CC1` [Taladegib (LY2940680)], for which the “Relative cell viability (%)” value was 105.5%.

Regarding `Cc1cccc(Cc2c[nH]cn2)c1C` [Detomidine HCl], the “Relative cell viability (%)” value turned out to be 118.5%.

Turning to `O=C(NS(=O)(=O)c1ccc(Br)s1)c1ccc(Cl)cc1Cl` [Tasisulam], the “Relative cell viability (%)” value came out at 94.44%.

Consider `CC1(C)S[C@@H]2[C@H](NC(=O)[C@H](NC(=O)N3CCN(S(C)(=O)=O)C3=O)c3ccccc3)C(=O)N2[C@H]1C(=O)O` [Mezlocillin Sodium], for which the “Relative cell viability (%)” value was 90.303%.

Consider `N[C@@H](Cc1cc(I)c(Oc2cc(I)c(O)c(I)c2)c(I)c1)C(=O)O` [L-Thyroxine], for which the “Relative cell viability (%)” value turned out to be 67.96%.

For the molecule `CC(=O)Nc1cccc(-n2c(=O)n(C3CC3)c(=O)c3c(Nc4ccc(I)cc4F)n(C)c(=O)c(C)c32)c1` [Trametinib (GSK1120212)], the “Relative cell viability (%)” value is given as 35.92%.

With `O=c1ccn([C@@H]2O[C@H](CO)[C@@H](O)[C@H]2O)c(=O)[nH]1` [Uridine], the “Relative cell viability (%)” value stood at 222.2%.

Turning to `CCOC(=O)c1ncn2c1CN(C)C(=O)c1cc(F)ccc1-2` [Flumazenil], the “Relative cell viability (%)” value is on record as 80.53%.

`CC#C[C@]1(O)CC[C@H]2[C@@H]3CCC4=CC(=O)CCC4=C3[C@@H](c3ccc(N(C)C)cc3)C[C@@]21C` [Mifepristone]: the “Relative cell viability (%)” value worked out at 46.12%.

Regarding `Nc1ccc(S(=O)(=O)Nc2ncccn2)cc1` [Sulfadiazine], the “Relative cell viability (%)” value was determined as 85.59%.

As to `CN1CCN2c3ncccc3Cc3ccccc3C2C1` (stereo not drawn) [Mirtazapine], the “Relative cell viability (%)” value is given as 177.9%.

Regarding `CC[C@@H]([C@H](C)O)n1ncn(-c2ccc(N3CCN(c4ccc(OC[C@@H]5CO[C@@](Cn6cncn6)(c6ccc(F)cc6F)C5)cc4)CC3)cc2)c1=O` [Posaconazole], the “Relative cell viability (%)” value was determined as 32.24%.

Turning to `CN(CCOc1ccc(CC2SC(=O)NC2=O)cc1)c1ccccn1` (stereo not drawn) [Rosiglitazone HCl], the “Relative cell viability (%)” value amounted to 114.3%.

For `COc1cc([C@@H]2c3cc4c(cc3[C@@H](O[C@@H]3O[C@@H]5CO[C@@H](c6cccs6)O[C@H]5[C@H](O)[C@H]3O)[C@H]3COC(=O)[C@H]23)OCO4)cc(OC)c1O` [Teniposide], the “Relative cell viability (%)” value is listed as 34.75%.

For `COCCCN1CCC(NC(=O)c2cc(Cl)c(N)c3c2OCC3)CC1` [Prucalopride], the “Relative cell viability (%)” value stood at 129.1%.

In the case of `CC[C@H](NC(=O)[C@H](C)NC)C(=O)N1C[C@@H](O)C[C@H]1Cc1c(-c2[nH]c3cc(F)ccc3c2C[C@@H]2C[C@H](O)CN2C(=O)[C@H](CC)NC(=O)[C@H](C)NC)[nH]c2cc(F)ccc12` [Birinapant], the “Relative cell viability (%)” value is recorded as 132.9%.

For the molecule `COc1ccccc1OCCNCC(O)COc1cccc2[nH]c3ccccc3c12` (stereo not drawn) [Carvedilol], the “Relative cell viability (%)” value was 24.58%.

As for `C[C@]12C=CC(=O)C=C1CC[C@H]1[C@@H]3C[C@@H](O)[C@](O)(C(=O)CO)[C@@]3(C)C[C@H](O)[C@@]12F` [Triamcinolone], the “Relative cell viability (%)” value worked out at 171.8%.

For `CCN1CCN(Cc2ccc(Nc3ncc(F)c(-c4cc(F)c5nc(C)n(C(C)C)c5c4)n3)nc2)CC1` [LY2835219], the “Relative cell viability (%)” value worked out at 5.983%.

With `C[C@@H](O)[C@H]1C(=O)N2C(C(=O)O)=C(S[C@@H]3CN[C@H](C(=O)N(C)C)C3)[C@H](C)[C@H]12` [Meropenem], the “Relative cell viability (%)” value was found to be 72.74%.

`CCCCOc1ccc(C(=O)CCN2CCCCC2)cc1` [Dyclonine HCl]: the “Relative cell viability (%)” value is reported as 155.2%.

Take `CCCCc1oc2ccc(NS(C)(=O)=O)cc2c1C(=O)c1ccc(OCCCN(CCCC)CCCC)cc1` [Dronedarone HCl]: the “Relative cell viability (%)” value is 86.05%.

In the case of `OC[C@@H](O)[C@@H](O)[C@H](O)[C@@H](O)CO` [Sorbitol], the “Relative cell viability (%)” value came to 125%.

`CCNC1(C(N)=O)CCN(c2ncnc3c2nc(-c2ccccc2Cl)n3-c2ccc(Cl)cc2)CC1` [Otenabant (CP-945598) HCl]: the “Relative cell viability (%)” value was 70.09%.

In the case of `C[C@@H]1CCO[C@H]2Cn3cc(C(=O)NCc4ccc(F)cc4F)c(=O)c(O)c3C(=O)N12` [Dolutegravir (GSK1349572)], the “Relative cell viability (%)” value was found to be 70.87%.

Consider `NC(=O)Cc1cccc(C(=O)c2ccccc2)c1N` [Nepafenac], for which the “Relative cell viability (%)” value is given as 77.41%.

Regarding `CCCCc1nc(Cl)c(CO)n1Cc1ccc(-c2ccccc2-c2nn[nH]n2)cc1` [Losartan Potassium (DuP 753)], the “Relative cell viability (%)” value worked out at 88.32%.

As for `CC(C(=O)O)c1ccc2c(c1)CC(=O)c1ccccc1S2` (stereo not drawn) [Zaltoprofen], the “Relative cell viability (%)” value is on record as 88.35%.

As for `O=C(O)c1cc(=O)c2ccccc2o1` [Chromocarb], the “Relative cell viability (%)” value was determined as 81.21%.

Turning to `CC1=CC(=O)c2ccccc2C1=O` [Menadione], the “Relative cell viability (%)” value amounted to 15.16%.

As to `COCCOC(=O)C1=C(C)NC(C)=C(C(=O)OC(C)C)C1c1cccc([N+](=O)[O-])c1` (stereo not drawn) [Nimodipine], the “Relative cell viability (%)” value is reported as 53.81%.

For `CNC1CCCN(c2c(F)cc3c(=O)c(C(=O)O)cn(C4CC4)c3c2OC)C1` (stereo not drawn) [Balofloxacin], the “Relative cell viability (%)” value is 111.9%.

Turning to `CS(=O)(=O)CCNCc1ccc(-c2ccc3ncnc(Nc4ccc(OCc5cccc(F)c5)c(Cl)c4)c3c2)o1` [Lapatinib], the “Relative cell viability (%)” value turned out to be 94.3%.

Consider `Oc1cc(O)c(Cl)cn1` [Gimeracil], for which the “Relative cell viability (%)” value was found to be 117.6%.

Regarding `O=C1NC(=O)[C@@H](c2cn3c4c(cccc24)CCC3)[C@@H]1c1c[nH]c2ccccc12` [Tivantinib (ARQ 197)], the “Relative cell viability (%)” value is given as 27.18%.

Consider `CCOC(=O)[C@@H](N)Cc1ccc(-c2cc(O[C@H](c3ccc(Cl)cc3-n3ccc(C)n3)C(F)(F)F)nc(N)n2)cc1` [Telotristat Etiprate (LX 1606 Hippurate)], for which the “Relative cell viability (%)” value was determined as 86.05%.

For the molecule `CC(=O)OCC(=O)[C@@]12OC(C)(C)O[C@@H]1C[C@H]1[C@@H]3C[C@H](F)C4=CC(=O)C=C[C@]4(C)[C@@]3(F)[C@@H](O)C[C@@]12C` [Fluocinonide], the “Relative cell viability (%)” value is recorded as 56.31%.

`CN(C)c1ccc(C(=C2C=CC(=[N+](C)C)C=C2)c2ccc(N(C)C)cc2)cc1` [Crystal Violet]: the “Relative cell viability (%)” value was 4.52%.

Consider `[H]/N=C(\N/C(=N/[H])NCCCCCCNC(=N)NC(=N)Nc1ccc(Cl)cc1)Nc1ccc(Cl)cc1` [Chlorhexidine HCl], for which the “Relative cell viability (%)” value was 28.64%.

With `c1ccc2[nH]c(-c3cscn3)nc2c1` [Thiabendazole], the “Relative cell viability (%)” value came to 70.34%.

On to `CC(C)C[C@H](NC(=O)CNC(=O)c1cc(Cl)ccc1Cl)B(O)O` [MLN2238], for which the “Relative cell viability (%)” value turned out to be 125%.

Turning to `C[C@H](CCC(=O)O)[C@H]1CC[C@H]2[C@@H]3CC[C@@H]4C[C@H](O)CC[C@]4(C)[C@H]3C[C@H](O)[C@]12C` [Deoxycholic acid], the “Relative cell viability (%)” value is 90.6%.
